According to the NIST ThermoML archive (doi:10.1021/je101361u):
Numbers after ± are expanded uncertainties.

Assay: xn = mol fraction of the nth substance listed
Conditions: 101.3 kPa, Liquid

COCCOC [1,2-dimethoxyethane] + ClCCCl gave a mass density (308.15 K, x2 = 0.5) of 1017.36 ± 0.32 kg/m3, a mass density (308.15 K, x2 = 0.5001) of 1017.45 ± 0.32 kg/m3 and a mass density (308.15 K, x2 = 0.55) of 1036.29 ± 0.34 kg/m3. The mass density (308.15 K, x2 = 0.6001) was 1055.67 ± 0.36 kg/m3, the mass density (308.15 K, x2 = 0.65) was 1075.5 ± 0.38 kg/m3 and the mass density (308.15 K, x2 = 0.7) was 1095.88 ± 0.41 kg/m3. For the same compound, the mass density (308.15 K, x2 = 0.75) was 1116.88 ± 0.43 kg/m3, the mass density (308.15 K, x2 = 0.8) was 1138.31 ± 0.46 kg/m3 and the mass density (308.15 K, x2 = 0.85) was 1160.61 ± 0.49 kg/m3. The mass density (308.15 K, x2 = 0.9) was 1183.44 ± 0.51 kg/m3, the mass density (308.15 K, x2 = 0.925) was 1195 ± 0.53 kg/m3 and the mass density (308.15 K, x2 = 0.975) was 1218.9 ± 0.56 kg/m3. It also gave a mass density (313.15 K, x2 = 0.0251) of 852.25 ± 0.53 kg/m3, a mass density (313.15 K, x2 = 0.05) of 859.77 ± 0.51 kg/m3 and a mass density (313.15 K, x2 = 0.0501) of 859.82 ± 0.51 kg/m3. It also gave a mass density (313.15 K, x2 = 0.075) of 867.42 ± 0.5 kg/m3, a mass density (313.15 K, x2 = 0.1) of 875.11 ± 0.49 kg/m3 and a mass density (313.15 K, x2 = 0.1552) of 892.54 ± 0.46 kg/m3. The mass density (313.15 K, x2 = 0.2001) was 906.96 ± 0.43 kg/m3, the mass density (313.15 K, x2 = 0.2501) was 923.37 ± 0.4 kg/m3 and the mass density (313.15 K, x2 = 0.3002) was 940.18 ± 0.38 kg/m3. It also gave a mass density (313.15 K, x2 = 0.35) of 957.24 ± 0.35 kg/m3, a mass density (313.15 K, x2 = 0.4001) of 974.8 ± 0.33 kg/m3 and a mass density (313.15 K, x2 = 0.45) of 992.71 ± 0.31 kg/m3. The mass density (313.15 K, x2 = 0.5) was 1011.06 ± 0.31 kg/m3, the mass density (313.15 K, x2 = 0.5001) was 1011.16 ± 0.31 kg/m3 and the mass density (313.15 K, x2 = 0.55) was 1029.91 ± 0.33 kg/m3. The mass density (313.15 K, x2 = 0.6001) was 1049.2 ± 0.35 kg/m3, the mass density (313.15 K, x2 = 0.65) was 1068.94 ± 0.37 kg/m3 and the mass density (313.15 K, x2 = 0.7) was 1089.21 ± 0.4 kg/m3. The mass density (313.15 K, x2 = 0.75) was 1110.11 ± 0.42 kg/m3, the mass density (313.15 K, x2 = 0.8) was 1131.44 ± 0.45 kg/m3 and the mass density (313.15 K, x2 = 0.85) was 1153.62 ± 0.48 kg/m3. For the same compound, the mass density (313.15 K, x2 = 0.9) was 1176.32 ± 0.5 kg/m3, the mass density (313.15 K, x2 = 0.925) was 1187.82 ± 0.52 kg/m3 and the mass density (313.15 K, x2 = 0.975) was 1211.59 ± 0.55 kg/m3. It also gave a mass density (318.15 K, x2 = 0.0251) of 846.59 ± 0.53 kg/m3, a mass density (318.15 K, x2 = 0.05) of 854.09 ± 0.52 kg/m3 and a mass density (318.15 K, x2 = 0.0501) of 854.13 ± 0.52 kg/m3. For the same compound, the mass density (318.15 K, x2 = 0.075) was 861.7 ± 0.5 kg/m3, the mass density (318.15 K, x2 = 0.1) was 869.35 ± 0.49 kg/m3 and the mass density (318.15 K, x2 = 0.1552) was 886.71 ± 0.46 kg/m3. The mass density (318.15 K, x2 = 0.2001) was 901.08 ± 0.44 kg/m3, the mass density (318.15 K, x2 = 0.2501) was 917.42 ± 0.41 kg/m3 and the mass density (318.15 K, x2 = 0.3002) was 934.15 ± 0.38 kg/m3. The mass density (318.15 K, x2 = 0.35) was 951.14 ± 0.36 kg/m3, the mass density (318.15 K, x2 = 0.4001) was 968.62 ± 0.33 kg/m3 and the mass density (318.15 K, x2 = 0.45) was 986.46 ± 0.31 kg/m3. It also gave a mass density (318.15 K, x2 = 0.5) of 1004.73 ± 0.3 kg/m3, a mass density (318.15 K, x2 = 0.5001) of 1004.83 ± 0.3 kg/m3 and a mass density (318.15 K, x2 = 0.55) of 1023.49 ± 0.32 kg/m3. For the same compound, the mass density (318.15 K, x2 = 0.6001) was 1042.69 ± 0.34 kg/m3, the mass density (318.15 K, x2 = 0.65) was 1062.34 ± 0.36 kg/m3 and the mass density (318.15 K, x2 = 0.7) was 1082.51 ± 0.39 kg/m3. It also gave a mass density (318.15 K, x2 = 0.75) of 1103.31 ± 0.41 kg/m3, a mass density (318.15 K, x2 = 0.8) of 1124.52 ± 0.44 kg/m3 and a mass density (318.15 K, x2 = 0.85) of 1146.58 ± 0.47 kg/m3. It also gave a mass density (318.15 K, x2 = 0.9) of 1169.16 ± 0.49 kg/m3, a mass density (318.15 K, x2 = 0.925) of 1180.61 ± 0.51 kg/m3 and a mass density (318.15 K, x2 = 0.975) of 1204.25 ± 0.54 kg/m3. It also gave a mass density (323.15 K, x2 = 0.0251) of 840.89 ± 0.54 kg/m3, a mass density (323.15 K, x2 = 0.05) of 848.36 ± 0.52 kg/m3 and a mass density (323.15 K, x2 = 0.0501) of 848.39 ± 0.52 kg/m3. The mass density (323.15 K, x2 = 0.075) was 855.93 ± 0.51 kg/m3, the mass density (323.15 K, x2 = 0.1) was 863.55 ± 0.5 kg/m3 and the mass density (323.15 K, x2 = 0.1552) was 880.84 ± 0.47 kg/m3. For the same compound, the mass density (323.15 K, x2 = 0.2001) was 895.15 ± 0.44 kg/m3, the mass density (323.15 K, x2 = 0.2501) was 911.42 ± 0.42 kg/m3 and the mass density (323.15 K, x2 = 0.3002) was 928.08 ± 0.39 kg/m3. The mass density (323.15 K, x2 = 0.35) was 945 ± 0.37 kg/m3, the mass density (323.15 K, x2 = 0.4001) was 962.41 ± 0.34 kg/m3 and the mass density (323.15 K, x2 = 0.45) was 980.16 ± 0.32 kg/m3. For the same compound, the mass density (323.15 K, x2 = 0.5) was 998.35 ± 0.3 kg/m3, the mass density (323.15 K, x2 = 0.5001) was 998.45 ± 0.3 kg/m3 and the mass density (323.15 K, x2 = 0.55) was 1017.03 ± 0.31 kg/m3. For the same compound, the mass density (323.15 K, x2 = 0.6001) was 1036.13 ± 0.33 kg/m3, the mass density (323.15 K, x2 = 0.65) was 1055.68 ± 0.35 kg/m3 and the mass density (323.15 K, x2 = 0.7) was 1075.76 ± 0.38 kg/m3. The mass density (323.15 K, x2 = 0.75) was 1096.45 ± 0.4 kg/m3, the mass density (323.15 K, x2 = 0.8) was 1117.56 ± 0.43 kg/m3 and the mass density (323.15 K, x2 = 0.85) was 1139.51 ± 0.46 kg/m3. The mass density (323.15 K, x2 = 0.9) was 1161.97 ± 0.48 kg/m3, the mass density (323.15 K, x2 = 0.925) was 1173.35 ± 0.5 kg/m3 and the mass density (323.15 K, x2 = 0.975) was 1196.86 ± 0.53 kg/m3. For the same compound, the mass density (328.15 K, x2 = 0.0251) was 835.13 ± 0.55 kg/m3, the mass density (328.15 K, x2 = 0.05) was 842.55 ± 0.53 kg/m3 and the mass density (328.15 K, x2 = 0.0501) was 842.6 ± 0.53 kg/m3. It also gave a mass density (328.15 K, x2 = 0.075) of 850.11 ± 0.52 kg/m3, a mass density (328.15 K, x2 = 0.1) of 857.7 ± 0.51 kg/m3 and a mass density (328.15 K, x2 = 0.1552) of 874.92 ± 0.48 kg/m3. The mass density (328.15 K, x2 = 0.2001) was 889.17 ± 0.45 kg/m3, the mass density (328.15 K, x2 = 0.2501) was 905.37 ± 0.42 kg/m3 and the mass density (328.15 K, x2 = 0.3002) was 921.97 ± 0.4 kg/m3. For the same compound, the mass density (328.15 K, x2 = 0.35) was 938.81 ± 0.37 kg/m3, the mass density (328.15 K, x2 = 0.4001) was 956.14 ± 0.35 kg/m3 and the mass density (328.15 K, x2 = 0.45) was 973.82 ± 0.32 kg/m3. For the same compound, the mass density (328.15 K, x2 = 0.5) was 991.93 ± 0.3 kg/m3, the mass density (328.15 K, x2 = 0.5001) was 992.02 ± 0.3 kg/m3 and the mass density (328.15 K, x2 = 0.55) was 1010.51 ± 0.3 kg/m3. It also gave a mass density (328.15 K, x2 = 0.6001) of 1029.53 ± 0.32 kg/m3, a mass density (328.15 K, x2 = 0.65) of 1048.98 ± 0.35 kg/m3 and a mass density (328.15 K, x2 = 0.7) of 1068.97 ± 0.37 kg/m3. For the same compound, the mass density (328.15 K, x2 = 0.75) was 1089.55 ± 0.39 kg/m3, the mass density (328.15 K, x2 = 0.8) was 1110.55 ± 0.42 kg/m3 and the mass density (328.15 K, x2 = 0.85) was 1132.39 ± 0.45 kg/m3. For the same compound, the mass density (328.15 K, x2 = 0.9) was 1154.73 ± 0.47 kg/m3, the mass density (328.15 K, x2 = 0.925) was 1166.05 ± 0.49 kg/m3 and the mass density (328.15 K, x2 = 0.975) was 1189.43 ± 0.52 kg/m3. The mass density (333.15 K, x2 = 0.0251) was 829.32 ± 0.55 kg/m3, the mass density (333.15 K, x2 = 0.05) was 836.72 ± 0.54 kg/m3 and the mass density (333.15 K, x2 = 0.0501) was 836.76 ± 0.54 kg/m3. For the same compound, the mass density (333.15 K, x2 = 0.075) was 844.24 ± 0.52 kg/m3, the mass density (333.15 K, x2 = 0.1) was 851.8 ± 0.51 kg/m3 and the mass density (333.15 K, x2 = 0.1552) was 868.95 ± 0.48 kg/m3. For the same compound, the mass density (333.15 K, x2 = 0.2001) was 883.15 ± 0.46 kg/m3, the mass density (333.15 K, x2 = 0.2501) was 899.27 ± 0.43 kg/m3 and the mass density (333.15 K, x2 = 0.3002) was 915.79 ± 0.4 kg/m3. For the same compound, the mass density (333.15 K, x2 = 0.35) was 932.56 ± 0.38 kg/m3, the mass density (333.15 K, x2 = 0.4001) was 949.82 ± 0.35 kg/m3 and the mass density (333.15 K, x2 = 0.45) was 967.42 ± 0.33 kg/m3. It also gave a mass density (333.15 K, x2 = 0.5) of 985.45 ± 0.31 kg/m3, a mass density (333.15 K, x2 = 0.5001) of 985.53 ± 0.31 kg/m3 and a mass density (333.15 K, x2 = 0.55) of 1003.94 ± 0.3 kg/m3. The mass density (333.15 K, x2 = 0.6001) was 1022.87 ± 0.32 kg/m3, the mass density (333.15 K, x2 = 0.65) was 1042.24 ± 0.34 kg/m3 and the mass density (333.15 K, x2 = 0.7) was 1062.12 ± 0.36 kg/m3. The mass density (333.15 K, x2 = 0.75) was 1082.61 ± 0.38 kg/m3, the mass density (333.15 K, x2 = 0.8) was 1103.5 ± 0.41 kg/m3 and the mass density (333.15 K, x2 = 0.85) was 1125.22 ± 0.44 kg/m3. It also gave a mass density (333.15 K, x2 = 0.9) of 1147.44 ± 0.46 kg/m3, a mass density (333.15 K, x2 = 0.925) of 1158.7 ± 0.48 kg/m3 and a mass density (333.15 K, x2 = 0.975) of 1181.97 ± 0.51 kg/m3.
